Laboratory results taken from US20240108740A1, “THERAPEUTIC COMPOSITIONS INCLUDING SPN10 AND USES THEREOF” (Stealth BioTherapeutics Inc., priority 2022, published 2024).
Residues, ends and D or L forms follow the SMILES beside them.

Legend:
[1] = test system: Sprague-Dawley rats; experiment: Example 56: diabetic retinopathy in STZ and HFD/STZ rats; format: in vivo, rat
Protocol: A rat model of diabetes will be established by combination of 6-week HFD and either 1) a low-dose STZ (30 mg/kg) injection, or 2) a single high dose of STZ (65 mg/kg) in Sprague-Dawley rats. See generally, Srinivasan, et al., Pharm. Res. 52(4):313-320 (2005). Controls will be maintained on normal rat chow (NRC). Treatment groups will be as follows: • Group A: 12 HFD/STZ peptide conjugates 10 mg/kg s.c • Group B: 12 HFD/STZ peptide conjugates 3 mg/kg s.c. • Group C: 12 HFD/STZ peptide conjugates 1 mg/kg s.c. • Group D: 10 HFD/STZ control vehicle. s.c. • Group E: 10 NRC control vehicle. s.c. • Group F: 12 HFD/STZ aromatic-cationic peptide (an equivalent molar dose of aromatic-cationic peptide based on concentration of the aromatic-cationic peptide administered in the 10 mg/kg s.c.q.d. peptide conjugate group) • Group G: 12 HFD/STZ aromatic-cationic peptide (an equivalent molar dose of aromatic-cationic peptide based on concentration of the aromatic-cationic peptide administered in the 3 mg/kg s.c.q.d. peptide conjugate group) • Group H: 12 HFD/STZ aromatic-cationic peptide (an equivalent molar dose of aromatic-cationic peptide based on concentration of the aromatic-cationic peptide administered in the 1 mg/kg s.c.q.d. peptide conjugate group) • Group I: 12 HFD/STZ SPN10 (an equivalent molar dose of SPN10 based on concentration of SPN10 administered in the 10 mg/kg s.c.q.d. peptide conjugate group) • Group J: 12 HFD/STZ SPN10 (an equivalent molar dose of SPN10 based on concentration of SPN10 administered in the 3 mg/kg s.c.q.d. peptide conjugate group) • Group K: 12 HFD/STZ SPN10 (an equivalent molar dose of SPN10 based on concentration of SPN10 administered in the 1 mg/kg s.c.q.d. peptide conjugate group). • Group L: SPN10(s) in combination with aromatic-cationic peptides (e.g., an equivalent molar dose of SPN10 based on the concentration of SPN10 administered in the 10 mg/kg s.c.q.d. peptide conjugate treatment group and an equivalent molar dose of aromatic-cationic peptide based on the concentration of aromatic-cationic peptide administered in the 10 mg/kg s.c.q.d. peptide conjugate treatment group) • Group M: SPN10(s) in combination with aromatic-cationic peptides (e.g., an equivalent molar dose of SPN10 based on the concentration of SPN10 administered in the 3 mg/kg s.c.q.d. peptide conjugate treatment group and an equivalent molar dose of aromatic-cationic peptide based on the concentration of aromatic-cationic peptide administered in the 3 mg/kg s.c.q.d. peptide conjugate treatment group) • Group N: SPN10(s) in combination with aromatic-cationic peptides (e.g., an equivalent molar dose of SPN10 based on the concentration of SPN10 administered in the 1 mg/kg s.c.q.d. peptide conjugate treatment group and an equivalent molar dose of aromatic-cationic peptide based on the concentration of aromatic-cationic peptide administered in the 1 mg/kg s.c.q.d. peptide conjugate treatment group)
Eyes will be harvested and subjects assessed for cataract formation, epithelial changes, integrity of the blood-retinal barrier, retinal microvascular structure, and retinal tight junction structure using methods known in the art.

[2] = test system: neonatal cardiomyocytes; experiment: Example 57: Ang II-induced mitochondrial ROS (Mitosox, flow cytometry); format: cell-based, mouse; details: Angiotensin II 1 μM, 3 hours
Protocol: Ventricles from mouse neonates younger than 72 hours will be dissected, minced, and enzymatically digested with Blendzyme 4 (45 mg/mL, Roche). After enzymatic digestion, cardiomyocytes will be enriched using differential pre-plating for 2 hours, and seeded on fibronectin-coated culture dishes for 24 hours in DMEM (Gibco) with 20% Fetal Bovine Serum (Sigma) and 25 μM Arabinosylcytosine (Sigma). Cardiomyocytes will be stimulated with Angiotensin II (1 μM) for 3 hours in serum-free DMEM containing 0.5% insulin transferrin-selenium (Sigma), 2 mM glutamine, and 1 mg/mL BSA. […] Samples will be analyzed using excitation/emission of 488/625 nm by flow cytometry. Flow data will be analyzed using FCS Express (De Novo Software, Los Angeles, CA, U.S.A.), and presented as histogram distributions of Mitosox fluorescence intensity.

N=C(N)NCCC[C@H](NC(=O)[C@@H](N)Cc1c[nH]c2ccccc12)C(=O)N[C@@H](Cc1c[nH]c2ccccc12)C(=O)N[C@@H](CCCCN)C(N)=O [SPN10, H-L-Trp-L-Arg-L-Trp-L-Lys-NH2] (H-WRWK-NH2)
non-uniform distribution of tight junctions (claudin-5) along retinal vessels ([1]; HFD/STZ subjects): prevent, reverse, or attenuate this effect | retinal microvascular changes ([1]; STZ or HFD/STZ rats): reduce retinal microvascular changes | epithelial cellular changes ([1]; STZ rat model and HFD/STZ rat model): reduce epithelial cellular changes | inner blood-retinal barrier function ([1]; compared to control subjects): improved inner blood-retinal barrier function | cataract formation in the lenses of diabetic rats ([1]; rat, in vivo): prevention or reversal of cataract formation | Ang II-induced Mitosox fluorescence (mitochondrial ROS) [2]: reduce Ang II-induced fluorescence to the level similar to that of saline-treated control cardiomyocytes
